From PubChem BioAssay (NCI)
“And” between values parts separate entries of the source, which are not always exact repeats. Identical values can stand only once.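 Assay format: 96-well plates, 48-hour exposure. Abbreviation: GI50, concentration required for 50% inhibition of growth. Definition used: TGI = concentration required for complete inhibition of growth.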

Experiments:
Assay in all cases: NCI tumour cell line growth inhibition, 48 h
MDA-N = tested on: MDA-N
KM20L2 colon = tested on: KM20L2 colon
DMS 273 small cell lung = tested on: DMS 273 small cell lung
XF 498 CNS = tested on: XF 498 CNS
LXFL 529 NSCLC = tested on: LXFL 529 NSCLC
DMS 114 small cell lung = tested on: DMS 114 small cell lung
DLD-1 colon = tested on: DLD-1 colon
RXF-631 renal = tested on: RXF-631 renal
HOP-18 NSCLC = tested on: HOP-18 NSCLC

## OC(COC(c1ccccc1)(c1ccccc1)c1ccccc1)C(O)CC1SCCS1 (stereo not drawn)
MDA-N
  TGI: 60.1 µM

## CC(=O)Nc1c(Nc2ccccc2)[nH]c(C)nc1=S
KM20L2 colon
  TGI: > 100 µM
DMS 273 small cell lung
  TGI: > 100 µM
XF 498 CNS
  TGI: > 100 µM
LXFL 529 NSCLC
  TGI: > 100 µM
DMS 114 small cell lung
  TGI: > 100 µM
DLD-1 colon
  TGI: > 100 µM

## c1ccc2c3c([nH]c2c1)[C@H]1C2CCCCN2CN1CC3 (stereo partly drawn)
KM20L2 colon
  TGI: > 100 µM
DMS 273 small cell lung
  TGI: > 100 µM
RXF-631 renal
  TGI: > 100 µM
XF 498 CNS
  TGI: > 100 µM
HOP-18 NSCLC
  TGI: > 100 µM
LXFL 529 NSCLC
  TGI: > 100 µM
DMS 114 small cell lung
  TGI: > 100 µM
DLD-1 colon
  TGI: > 100 µM

## CC1/C(=N\O)CC(c2ccccc2)N(C)C1c1ccccc1 (stereo not drawn)
KM20L2 colon
  TGI: > 100 µM
DMS 273 small cell lung
  TGI: > 100 µM
RXF-631 renal
  TGI: > 100 µM
LXFL 529 NSCLC
  TGI: > 100 µM
DMS 114 small cell lung
  TGI: > 100 µM
DLD-1 colon
  TGI: > 100 µM

## CC1CC[P+](c2ccccc2)(c2ccccc2)c2c1ccc1ccccc21 (stereo not drawn)
MDA-N
  GI50: 2.98 µM
  TGI: > 28.3 µM

## CN(C)CCNC(=O)c1cccc2cc3c(Cl)cccc3nc12
KM20L2 colon
  TGI: 4.75 µM
DMS 273 small cell lung
  TGI: > 100 µM
RXF-631 renal
  TGI: > 100 µM
XF 498 CNS
  TGI: 1.64 µM
HOP-18 NSCLC
  TGI: > 27.6 µM
DMS 114 small cell lung
  TGI: 3.69 µM
DLD-1 colon
  TGI: 4.46 µM

## CCOC(=O)C(=O)CC1=Nc2ccccc2SC(c2cccc(C)c2)C1 (stereo not drawn)
KM20L2 colon
  TGI: 32.2 µM
DMS 273 small cell lung
  TGI: 37.9 µM
RXF-631 renal
  TGI: 29.4 µM
LXFL 529 NSCLC
  TGI: 31.9 µM
DMS 114 small cell lung
  TGI: 35 µM
DLD-1 colon
  TGI: 34.1 µM

## O=C(/C=C\c1ccc([N+](=O)[O-])cc1)c1ccccc(=O)c1O
MDA-N
  TGI: > 30.5 µM

## CCc1cccc(C)c1NC(=O)C(=O)CC(=O)c1ccc(Cl)s1
KM20L2 colon
  TGI: > 100 µM
RXF-631 renal
  TGI: > 100 µM
HOP-18 NSCLC
  TGI: > 100 µM
LXFL 529 NSCLC
  TGI: > 100 µM
DLD-1 colon
  TGI: > 100 µM

## O=S(=O)(NNc1ccccc1)c1ccccc1
MDA-N
  TGI: 25.3 µM

## O=[N+]([O-])C=C(c1ccc(Cl)cc1)c1ccc(Cl)cc1
KM20L2 colon
  TGI: 38.9 µM
DMS 273 small cell lung
  TGI: 20.1 µM
LXFL 529 NSCLC
  TGI: 28.5 µM
DMS 114 small cell lung
  TGI: 28.5 µM
DLD-1 colon
  TGI: 32 µM

## CN(C)C(=N/O)/C(=N\O)N(C)C
KM20L2 colon
  TGI: > 100 µM
DMS 273 small cell lung
  TGI: > 100 µM
RXF-631 renal
  TGI: > 100 µM
XF 498 CNS
  TGI: > 100 µM
HOP-18 NSCLC
  TGI: > 100 µM
LXFL 529 NSCLC
  TGI: > 100 µM
DMS 114 small cell lung
  TGI: > 100 µM
DLD-1 colon
  TGI: > 100 µM

## CCOP(=O)(OCC)C1CCCOC1=O (stereo not drawn)
KM20L2 colon
  TGI: > 100 µM
DMS 273 small cell lung
  TGI: > 100 µM
RXF-631 renal
  TGI: > 100 µM
XF 498 CNS
  TGI: > 100 µM
HOP-18 NSCLC
  TGI: > 100 µM
LXFL 529 NSCLC
  TGI: > 100 µM
DMS 114 small cell lung
  TGI: > 100 µM
DLD-1 colon
  TGI: > 100 µM

## c1ccc(C2OC3(CCC[C@H]4C[C@H]43)O[C@H]2c2ccccc2)cc1 (stereo partly drawn)
KM20L2 colon
  TGI: > 100 µM
DMS 273 small cell lung
  TGI: > 100 µM
RXF-631 renal
  TGI: > 100 µM
XF 498 CNS
  TGI: 43.8 µM
DMS 114 small cell lung
  TGI: 74.9 µM
DLD-1 colon
  TGI: > 100 µM

## C[CH2][Ge]([CH2]C)([CH2]C)[O]C(=O)C(OC(C)=O)c1ccccc1 (stereo not drawn)
KM20L2 colon
  GI50: > 100 µM
  TGI: > 100 µM
RXF-631 renal
  GI50: > 100 µM
  TGI: > 100 µM
XF 498 CNS
  TGI: 31 µM
HOP-18 NSCLC
  GI50: > 100 µM
  TGI: > 100 µM
LXFL 529 NSCLC
  GI50: > 100 µM
  TGI: > 100 µM
DMS 114 small cell lung
  GI50: 42.1 µM
  TGI: > 100 µM
DLD-1 colon
  GI50: > 100 µM
  TGI: > 100 µM

## ClC/C=C/COC1CCCCO1 (stereo not drawn)
KM20L2 colon
  TGI: > 100 µM
DMS 273 small cell lung
  TGI: > 100 µM
RXF-631 renal
  TGI: > 100 µM
XF 498 CNS
  TGI: > 100 µM
HOP-18 NSCLC
  TGI: > 100 µM
LXFL 529 NSCLC
  TGI: > 100 µM
DMS 114 small cell lung
  TGI: > 100 µM
DLD-1 colon
  TGI: > 100 µM

## CCOC(=O)Oc1cc2c(c(OC)c1OC)-c1ccc(OC)c(=O)cc1C(NC(C)=O)CC2 (stereo not drawn)
KM20L2 colon
  TGI: 0.0866 µM
MDA-N
  TGI: < 0.0216 µM
DMS 273 small cell lung
  TGI: > 100 µM
RXF-631 renal
  TGI: > 22.5 µM
XF 498 CNS
  TGI: > 100 µM
HOP-18 NSCLC
  TGI: > 100 µM
LXFL 529 NSCLC
  TGI: > 100 µM
DMS 114 small cell lung
  TGI: 0.0301 µM

## COC(=O)N/N=C(\C)c1c(O)cc(C)oc1=O
KM20L2 colon
  TGI: > 100 µM
RXF-631 renal
  TGI: > 100 µM
LXFL 529 NSCLC
  TGI: 45.5 µM
DLD-1 colon
  TGI: > 100 µM

## CN(C)c1ccc2oc(=O)c3ccccc3c2c1
MDA-N
  TGI: > 100 µM

## COc1ccc2c3c([nH]c2c1[N+](=O)[O-])C(C)N(Cc1ccccc1)CC3 (stereo not drawn)
KM20L2 colon
  TGI: > 100 µM
DMS 273 small cell lung
  TGI: 11.6 µM
LXFL 529 NSCLC
  TGI: > 100 µM
DMS 114 small cell lung
  TGI: > 100 µM
DLD-1 colon
  TGI: > 100 µM

## CC1=C(/C=C/C(C)=C/C2CC(N(C)C)=CC(=O)O2)C(C)(C)CCC1 (stereo not drawn)
DMS 273 small cell lung
  TGI: 27.1 µM
RXF-631 renal
  TGI: 27.8 µM
XF 498 CNS
  TGI: 25.1 µM
HOP-18 NSCLC
  TGI: 26.5 µM
LXFL 529 NSCLC
  TGI: 24 µM
DMS 114 small cell lung
  TGI: 23.8 µM
DLD-1 colon
  TGI: 32.8 µM

## Cc1ccc(S(=O)(=O)SC(C)(C)C)cc1
DMS 273 small cell lung
  TGI: 47.5 µM
RXF-631 renal
  TGI: > 100 µM
XF 498 CNS
  TGI: 32.1 µM
HOP-18 NSCLC
  TGI: > 100 µM
LXFL 529 NSCLC
  TGI: > 100 µM
DMS 114 small cell lung
  TGI: 35.6 µM
DLD-1 colon
  TGI: 35.3 µM

## O=C1CC(c2cccc(F)c2)Nc2cc3c(cc21)OCO3 (stereo not drawn)
MDA-N
  GI50: < 0.01 µM
  TGI: 0.0377 µM and < 0.01 µM

## CC(=O)c1c2c(cc3c1CC1(C3)Cc3cc4c(c(C(C)=O)c3C1)CCC4)CCC2
RXF-631 renal
  TGI: > 100 µM
XF 498 CNS
  TGI: > 100 µM
HOP-18 NSCLC
  TGI: > 100 µM
LXFL 529 NSCLC
  TGI: > 100 µM
DMS 114 small cell lung
  TGI: > 100 µM
DLD-1 colon
  TGI: > 100 µM

## CC(C)(C)C1CCC2c3c([nH]c4ccccc34)C3C(=O)N(c4ccc(Cl)cc4)C(=O)C3C2C1 (stereo not drawn)
MDA-N
  GI50: 94.9 µM and > 10 µM
  TGI: > 100 µM

## O=C(/C=C/c1ccccc1F)c1ccc(Cl)c(Cl)c1
KM20L2 colon
  TGI: > 100 µM
DMS 273 small cell lung
  TGI: > 100 µM
RXF-631 renal
  TGI: > 100 µM
XF 498 CNS
  TGI: 77 µM
HOP-18 NSCLC
  TGI: > 100 µM
LXFL 529 NSCLC
  TGI: 35.6 µM
DMS 114 small cell lung
  TGI: 55.5 µM
DLD-1 colon
  TGI: > 62.9 µM

## CC1=C(C(=O)Nc2ccccc2)C(c2cccc3ccccc23)C(C(=O)Nc2ccccc2)=C(C)N1
KM20L2 colon
  TGI: 36.2 µM
DMS 273 small cell lung
  TGI: 40.9 µM
HOP-18 NSCLC
  TGI: 46.8 µM
LXFL 529 NSCLC
  TGI: 34.4 µM
DMS 114 small cell lung
  TGI: 55.7 µM
DLD-1 colon
  TGI: > 100 µM

## CN(c1ccc(C(=O)c2ccc(N(C)S(C)(=O)=O)cc2)cc1)S(C)(=O)=O
KM20L2 colon
  TGI: > 100 µM
LXFL 529 NSCLC
  TGI: > 100 µM
DMS 114 small cell lung
  TGI: 61.1 µM
DLD-1 colon
  TGI: > 100 µM

## O=C1C=CC=C/C1=C1/SC(c2ccccc2)=C(O)N1c1ccccc1
KM20L2 colon
  TGI: > 100 µM
DMS 273 small cell lung
  TGI: > 100 µM
LXFL 529 NSCLC
  TGI: > 100 µM
DMS 114 small cell lung
  TGI: > 100 µM

## O=S(=O)(O)c1cc(O)c(N=Nc2ccc(O)cc2O)c2ccccc12
MDA-N
  TGI: > 100 µM

## O=C(O)[C@H](NS(=O)(=O)c1ccc(F)cc1)c1ccccc1
KM20L2 colon
  TGI: > 100 µM
DMS 273 small cell lung
  TGI: > 100 µM
XF 498 CNS
  TGI: > 100 µM
HOP-18 NSCLC
  TGI: > 100 µM
LXFL 529 NSCLC
  TGI: > 100 µM
DMS 114 small cell lung
  TGI: > 100 µM
DLD-1 colon
  TGI: > 100 µM
